{"source": "patent US7439052B2", "about": "“Method of making modified immunodeficiency virus particles” (Lipid Sciences, priority 2000, dated 2008)", "key": {"SIVmac239 [1]": {"test_system": "SIVmac239", "assay": "Absolute CD4 counts in SIV-infected macaques", "type": "in vivo", "conditions": "from pre-PMPA levels of <500/μl", "excerpt": "(§1) A cohort of highly viremic macaques chronically infected for over two years with SIVmac239 was used as a chronic and pathogenic model of immunodeficiency virus infection. The animals were identified as RDg-7, RJo-6, RMi-7 and RSp-6. To test the effect on these animals of administration of a delipidated immunodeficiency virus composition comprising modified, partially delipidated immunodeficiency viral particles, also referred to as therapeutic vaccine compositions or therapeutic vaccines, autologous immunodeficiency virus was delipidated and administered to the experimental animals following a 30 day antiretroviral therapy (ART) with an antiviral drug PMPA. […] The animals were then subjected to lymph node targeted immunization at monthly intervals with 1, 1 and 10 μg of autologous delipidated SIV virus composition, obtained substantially as described elsewhere herein. Four weeks after the last boost, ART was discontinued and the animals were monitored for virological and immunological parameters."}, "SIVmac239 [2]": {"test_system": "SIVmac239", "assay": "Plasma viral loads in macaques chronically infected with SIVmac239", "type": "in vivo", "excerpt": "as §1\nThe virological and immunological parameters were determined substantially as follows. Viral loads, schematically shown in FIGS. 13-18, were analyzed by SIV enzyme immunoassay (EIA) substantially as described elsewhere herein. […] Plates were read at a 450 nm wavelength using an ELISA reader. […]"}}}
{"smiles": "C[C@H](Cn1cnc2c(N)ncnc21)OCP(=O)(O)O", "note": "[PMPA]", "values": [{"measurement": "absolute CD4 counts", "setting": "SIVmac239 [1]", "result": "increases in absolute CD4 counts"}, {"measurement": "viral loads after 30 day antiretroviral therapy", "setting": "SIVmac239 [2]; macaques chronically infected with SIVmac239", "result": "less than 80 copies/ml of viral RNA"}, {"measurement": "plasma viral loads under treatment (below the limits of detection)", "setting": "SIVmac239 [2]; reduced from 10^4-10^6", "result": "< 10", "unit": "viral RNA copies/ml"}]}
